Converted amounts (≈) assume the structure as drawn. Where two headings read alike, the source gives them in different places.
Experiments:
Assay type in all cases: cell-based
[1] = tested on: Acinetobacter baumannii
Summary of the method: (§1)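 Values are minimum inhibitory concentrations in μg/mL, measured across a panel of up to nine strains of each Gram-negative pathogen, some Polymyxin-elevated or resistant.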

[2] = tested on: Escherichia coli
Summary of the method: as §1

[3] = tested on: Klebsiella pneumoniae; conditions: for MIC K. pneumoniae ATCC 4352: strain ATCC 4352
Summary of the method: as §1

[4] = tested on: Pseudomonas aeruginosa
Summary of the method: as §1

CC(C)C[C@@H]1NC(=O)[C@@H](CC2CCCCC2)NC(=O)[C@H](CCN)NC(=O)[C@@H](NC(=O)[C@H](CCN)NC(=O)[C@@H](NC(=O)CC(CN)c2ccccc2)[C@@H](C)O)CCNC(=O)[C@H]([C@@H](C)O)NC(=O)[C@H](CCN)NC(=O)[C@H](CCN)NC1=O (single isomer, unassigned; isomer 2) [Example 57, 4-amino-3-phenylbutanoyl polymyxin [D-cyclohexylalanine]-6 nonapeptide isomer 2]
MIC A. baumanii ATCC BAA-747 ([1]; strain ATCC BAA-747): 1 µg/mL (≈ 0.885 µM)
MIC A. baumanii NCTC 13424 ([1]; strain NCTC 13424): 1 µg/mL (≈ 0.885 µM)
MIC E. coli 058 ([2]; strain 058): 16 µg/mL (≈ 14.2 µM)
MIC E. coli ATCC 25922 ([2]; strain ATCC 25922): 0.25 µg/mL (≈ 0.221 µM)
MIC K. pneumoniae 065 ([3]; strain 065): 8 µg/mL (≈ 7.08 µM)
MIC K. pneumoniae ATCC 13882 ([3]; strain ATCC 13882): 0.25 µg/mL (≈ 0.221 µM)
MIC P. aeruginosa ATCC 27853 ([4]; strain ATCC 27853): 0.25 µg/mL (≈ 0.221 µM)
MIC P. aeruginosa CCUG 59347 ([4]; strain CCUG 59347): 0.5 µg/mL (≈ 0.442 µM)

CC(C)C[C@@H]1NC(=O)[C@@H](CC2CCCCC2)NC(=O)[C@H](CCN)NC(=O)[C@@H](NC(=O)[C@H](CN)NC(=O)[C@@H](NC(=O)CC(CN)Cc2ccccc2)[C@@H](C)O)CCNC(=O)[C@H]([C@@H](C)O)NC(=O)[C@H](CCN)NC(=O)[C@H](CCN)NC1=O (single isomer, unassigned; isomer 2) [Example 59, 4-amino-3-benzylbutanoyl L-Thr-L-Dap-polymyxin [D-cyclohexylalanine]-6 heptapeptide. Isomer 2]
MIC A. baumanii 053 ([1]; strain 053): 32 µg/mL (≈ 28.3 µM)
MIC A. baumanii 056 ([1]; strain 056): 16 µg/mL (≈ 14.2 µM)
MIC A. baumanii ATCC BAA-747 ([1]; strain ATCC BAA-747): 0.03 µg/mL (≈ 0.0265 µM)
MIC A. baumanii NCTC 13424 ([1]; strain NCTC 13424): 0.06 µg/mL (≈ 0.0531 µM)
MIC E. coli 058 ([2]; strain 058): 2 µg/mL (≈ 1.77 µM)
MIC E. coli ATCC 25922 ([2]; strain ATCC 25922): 0.125 µg/mL (≈ 0.111 µM)
MIC E. coli NCTC 9001 ([2]; strain NCTC 9001): 0.06 µg/mL (≈ 0.0531 µM)
MIC K. pneumoniae 063 ([3]; strain 063): 32 µg/mL (≈ 28.3 µM)
MIC K. pneumoniae 065 ([3]; strain 065): 2 µg/mL (≈ 1.77 µM)
MIC K. pneumoniae ATCC 4352 [3]: 0.125 µg/mL (≈ 0.111 µM)
MIC K. pneumoniae ATCC 13882 ([3]; strain ATCC 13882): 0.25 µg/mL (≈ 0.221 µM)
MIC P. aeruginosa 068 ([4]; strain 068): 4 µg/mL (≈ 3.54 µM)
MIC P. aeruginosa 070 ([4]; strain 070): 8 µg/mL (≈ 7.08 µM)
MIC P. aeruginosa ATCC 27853 ([4]; strain ATCC 27853): 0.25 µg/mL (≈ 0.221 µM)
MIC P. aeruginosa CCUG 59347 ([4]; strain CCUG 59347): 0.25 µg/mL (≈ 0.221 µM)

CC(C)CCC(CCN)C(=O)N[C@H](C(=O)N[C@@H](CCN)C(=O)N[C@H]1CCNC(=O)[C@H]([C@@H](C)O)NC(=O)[C@H](CCN)NC(=O)[C@H](CCN)NC(=O)[C@H](CC(C)C)NC(=O)[C@@H](CC2CCCCC2)NC(=O)[C@H](CCN)NC1=O)[C@@H](C)O (single isomer, unassigned; isomer 2) [Example 89, 2-(2-aminoethyl)-5-methylhexanoyl polymyxin [D-cyclohexylalanine-6]nonapeptide. Isomer 2]
MIC A. baumanii ATCC BAA-747 [1]: 0.5 µg/mL (≈ 0.445 µM)
MIC A. baumanii NCTC 13424 [1]: 0.25 µg/mL (≈ 0.222 µM)
MIC E. coli 058 [2]: 16 µg/mL (≈ 14.2 µM)
MIC E. coli ATCC 25922 [2]: 0.125 µg/mL (≈ 0.111 µM)
MIC K. pneumoniae 065 [3]: 32 µg/mL (≈ 28.5 µM)
MIC K. pneumoniae ATCC 13882 [3]: 0.25 µg/mL (≈ 0.222 µM)
MIC P. aeruginosa ATCC 27853 [4]: 0.5 µg/mL (≈ 0.445 µM)
MIC P. aeruginosa CCUG 59347 [4]: 1 µg/mL (≈ 0.889 µM)

CC(C)C[C@@H]1NC(=O)[C@@H](CC2CCCCC2)NC(=O)[C@H](CCN)NC(=O)[C@@H](NC(=O)[C@H](CCN)NC(=O)[C@@H](NC(=O)C(CCN)c2ccc(F)cc2)C(C)O)CCNC(=O)[C@H]([C@@H](C)O)NC(=O)[C@H](CCN)NC(=O)[C@H](CCN)NC1=O (single isomer, unassigned; isomer 2) [Example 54, 4-amino-2-(4-fluorophenyl) butanoyl polymyxin [D-cyclohexylalanine]-6 nonapeptide isomer 2]
MIC A. baumanii 053 [1]: 32 µg/mL (≈ 27.9 µM)
MIC A. baumanii 056 [1]: 8 µg/mL (≈ 6.97 µM)
MIC A. baumanii ATCC BAA-747 [1]: 0.125 µg/mL (≈ 0.109 µM)
MIC A. baumanii NCTC 13424 [1]: 0.25 µg/mL (≈ 0.218 µM)
MIC E. coli 058 [2]: 4 µg/mL (≈ 3.48 µM)
MIC E. coli 061 [2]: 16 µg/mL (≈ 13.9 µM)
MIC E. coli ATCC 25922 [2]: 0.125 µg/mL (≈ 0.109 µM)
MIC E. coli NCTC 9001 [2]: 0.06 µg/mL (≈ 0.0522 µM)
MIC K. pneumoniae 063 [3]: 32 µg/mL (≈ 27.9 µM)
MIC K. pneumoniae 065 [3]: 1 µg/mL (≈ 0.871 µM)
MIC K. pneumoniae ATCC 13882 [3]: 0.25 µg/mL (≈ 0.218 µM)
MIC P. aeruginosa 068 [4]: 4 µg/mL (≈ 3.48 µM)
MIC P. aeruginosa 070 [4]: 4 µg/mL (≈ 3.48 µM)
MIC P. aeruginosa ATCC 27853 [4]: 0.25 µg/mL (≈ 0.218 µM)
MIC P. aeruginosa CCUG 59347 [4]: 0.5 µg/mL (≈ 0.435 µM)

2-Aminomethyl-4- methyl pentanoyl polymyxin L-Thr-L-Dap- polymyxin [D-{4-(4- trifluoromethyl) phenyl} Phe]-6]heptapeptide. Isomer 1 [Example 19]
MIC A. baumanii ATCC BAA-747 ([1]; strain ATCC BAA-747): 1 µg/mL
MIC E. coli 058 ([2]; strain 058): 16 µg/mL
MIC E. coli ATCC 25922 ([2]; strain ATCC 25922): 1 µg/mL
MIC K. pneumoniae 065 ([3]; strain 065): 16 µg/mL
MIC K. pneumoniae ATCC 4352 [3]: 1 µg/mL
MIC P. aeruginosa ATCC 27853 ([4]; strain ATCC 27853): 2 µg/mL
